Patent US9593149B2, “Amylin and calcitonin receptor agonist” (Novo Nordisk A/S, priority 2014, dated 2017)
Peptide text beside a SMILES is read from it. * marks the point of attachment. C18 diacid = O=C(O)CCCCCCCCCCCCCCCCC(=O)*

Key:
[1] = Assay (XVI) T½ and subcutaneous bioavailability in LYD-pigs; type: in vivo
Procedure: Assay (XVI)—Determination of T½ and Subcutaneous Bioavailability in LYD-Pigs
Pharmacokinetic (PK) studies in Landrace Yorkshire Duroc crossbreed (LYD) pigs were conducted in order to determine a) the protraction of the mimylin derivative after i.v. administration, and b) the bioavailability of the mimylin derivative after s.c. administration The LYD pig were delivered, treated and acclimatised as described in ASSAY XV above.
In the i.v. and s.c. studies, the mimylin derivative was dissolved in 50 mM phosphate, 70 mM sodium chloride and 0.05% polysorbate 80, pH=8.0 to a concentration of approximately 100 nmol/mL. Animals were dosed with 2 nmol/kg s.c. and 5 nmol/kg i.v.
The animals were dosed subcutaneously or intravenously as follows. […]
The plasma concentration of the respective mimylin derivative was analysed using LC-MS. Individual plasma concentration-time profiles were analysed by a non-compartmental model in Phoenix WinNonlin version 6.3 (Pharsight Inc., Mountain View, Calif., USA).
The resulting terminal half-life was determined based on intravenous administration. T½ is the terminal half-life=In2/λz and was determined from λz, the first order rate constant associated with the terminal (log-linear) portion of the curve, estimated by linear regression of time vs. log concentration.
The absolute bioavailability (F) was calculated as follows: […]

[2] = Assay (IX) pK, T½ in mini-pig; type: in vivo, Göttingen mini-pigs; conditions: i.v.
Procedure, shortened: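 Female Göttingen mini-pigs (5–12 months, 15–35 kg, fed freely) received a single i.v. dose of approximately 5 nmol/kg via central venous catheter, typically n=3. Plasma was sampled from pre-dose to 240 h (sometimes 288 h) and quantified by LC-MS. T½ was derived by non-compartmental analysis from the terminal log-linear slope (ln2/λz).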

What does the source list for `CC(C)C[C@H](NC(=O)[C@H](C)NC(=O)[C@H](C)NC(=O)[C@@H](NC(=O)[C@H](CO)NC(=O)[C@H](CC(C)C)NC(=O)[C@H](CCC(=O)O)NC(=O)[C@H](CO)NC(=O)[C@H](C)NC(=O)[C@H](CCC(=O)O)NC(=O)CCCCCCCCCCCCCCCCC(=O)O)[C@@H](C)O)C(=O)NCC(=O)N[C@@H](CCCNC(=N)N)C(=O)N[C@@H](CC(C)C)C(=O)N[C@@H](CO)C(=O)N[C@@H](C)C(=O)N[C@@H](CCC(=O)O)C(=O)N[C@@H](CC(C)C)C(=O)N[C@@H](Cc1cnc[nH]1)C(=O)N[C@@H](CCC(=O)O)C(=O)N[C@@H](CC(C)C)C(=O)N[C@@H](C)C(=O)N[C@H](C(=O)N[C@@H](CC(C)C)C(=O)N1CCC[C@H]1C(=O)N[C@@H](CCCNC(=N)N)C(=O)N[C@H](C(=O)N[C@@H](CCC(=O)O)C(=O)N[C@H](C(=O)NCC(=O)N1CCC[C@H]1C(=O)N[C@@H](CCC(=O)O)C(=O)N[C@@H](CO)C(=O)N1CCC[C@H]1C(N)=O)[C@@H](C)O)[C@@H](C)O)[C@@H](C)O` [Ex. #2, [N-terminal(C18 diacid)]mimylin] ({C18 diacid}-EASELSTAALGRLSAELHELATLPRTETGPESP-NH2)?
Subcutaneous bioavailability (%) ([1]; LYD-pigs): 99%; LYD-pigs iv PK, t½ ([1]; i.v., harmonic mean, n = 3): 64 h; PK mini pig iv T½ [2]: 85 h
